ChEMBL document CHEMBL3112480, “γ-Alkylidene-γ-lactones and isobutylpyrrol-2(5H)-ones analogues to rubrolides as inhibitors of biofilm formation by gram-positive and gram-negative bacteria” (Bioorg Med Chem Lett, 2014)
≈ marks a conversion by molar mass, not a printed value.

Columns and labels:
Staphylococcus aureus [1] = experiment: Antibacterial activity against Staphylococcus aureus ATCC 25923 assessed as effect on planktonic growth at 0.68 ug/ml after 20 hrs relative to control; assay type: functional
[2] = system: Staphylococcus epidermidis; experiment: Antibacterial activity against Staphylococcus epidermidis ATCC 35547 assessed as effect on planktonic growth at 0.34 ug/ml after 20 hrs relative to control; assay type: functional
Streptococcus mutans [3] = experiment: Antibacterial activity against Streptococcus mutans ATCC 25175 assessed as effect on planktonic growth at 10.9 ug/ml after 20 hrs relative to control; assay type: functional
Staphylococcus aureus [4] = experiment: Antibacterial activity against Staphylococcus aureus ATCC 25923 assessed as effect on planktonic growth at 0.17 ug/ml after 20 hrs relative to control; assay type: functional
Streptococcus mutans [5] = experiment: Antibacterial activity against Streptococcus mutans ATCC 25175 assessed as effect on planktonic growth at 0.17 ug/ml after 20 hrs relative to control; assay type: functional
Pseudomonas aeruginosa [6] = experiment: Antibacterial activity against Pseudomonas aeruginosa ATCC 27853 assessed as effect on planktonic growth at 0.17 ug/ml after 20 hrs relative to control; assay type: functional
Staphylococcus aureus [7] = experiment: Antibacterial activity against Staphylococcus aureus ATCC 25923 assessed as effect on planktonic growth at 87.5 ug/ml after 20 hrs relative to control; assay type: functional
Streptococcus mutans [8] = experiment: Antibacterial activity against Streptococcus mutans ATCC 25175 assessed as effect on planktonic growth at 2.73 ug/ml after 20 hrs relative to control; assay type: functional
[9] = system: Staphylococcus epidermidis; experiment: Antibacterial activity against Staphylococcus epidermidis ATCC 35547 assessed as effect on planktonic growth at 2.73 ug/ml after 20 hrs relative to control; assay type: functional
Pseudomonas aeruginosa [10] = experiment: Antibacterial activity against Pseudomonas aeruginosa ATCC 27853 assessed as effect on planktonic growth at 43.8 ug/ml after 20 hrs relative to control; assay type: functional
Pseudomonas aeruginosa [11] = experiment: Antibacterial activity against Pseudomonas aeruginosa ATCC 27853 assessed as effect on planktonic growth at 5.5 ug/ml after 20 hrs relative to control; assay type: functional
[12] = system: Staphylococcus epidermidis; experiment: Antibacterial activity against Staphylococcus epidermidis ATCC 35547 assessed as inhibition of biofilm formation after 20 hrs by crystal-violet staining method; assay type: functional, organism-based; conditions: for IC50: ATCC 35547, 20 h
Pseudomonas aeruginosa [13] = experiment: Antibacterial activity against Pseudomonas aeruginosa ATCC 27853 assessed as effect on planktonic growth at 87.5 ug/ml after 20 hrs relative to control; assay type: functional
Pseudomonas aeruginosa [14] = experiment: Antibacterial activity against Pseudomonas aeruginosa ATCC 27853 assessed as effect on planktonic growth at 1.37 ug/ml after 20 hrs relative to control; assay type: functional
Staphylococcus aureus [15] = experiment: Antibacterial activity against Staphylococcus aureus ATCC 25923 assessed as effect on planktonic growth at 10.9 ug/ml after 20 hrs relative to control; assay type: functional
Streptococcus mutans [16] = experiment: Antibacterial activity against Streptococcus mutans ATCC 25175 assessed as effect on planktonic growth at 87.5 ug/ml after 20 hrs relative to control; assay type: functional
Streptococcus mutans [17] = experiment: Antibacterial activity against Streptococcus mutans ATCC 25175 assessed as effect on planktonic growth at 43.8 ug/ml after 20 hrs relative to control; assay type: functional
Pseudomonas aeruginosa [18] = experiment: Antibacterial activity against Pseudomonas aeruginosa ATCC 27853 assessed as effect on planktonic growth at 0.34 ug/ml after 20 hrs relative to control; assay type: functional
Staphylococcus aureus [19] = experiment: Antibacterial activity against Staphylococcus aureus ATCC 25923 assessed as effect on planktonic growth at 5.5 ug/ml after 20 hrs relative to control; assay type: functional
Pseudomonas aeruginosa [20] = experiment: Antibacterial activity against Pseudomonas aeruginosa ATCC 27853 assessed as effect on planktonic growth at 10.9 ug/ml after 20 hrs relative to control; assay type: functional
Streptococcus mutans [21] = experiment: Antibacterial activity against Streptococcus mutans ATCC 25175 assessed as effect on planktonic growth at 0.34 ug/ml after 20 hrs relative to control; assay type: functional
Pseudomonas aeruginosa [22] = experiment: Antibacterial activity against Pseudomonas aeruginosa ATCC 27853 assessed as effect on planktonic growth at 2.73 ug/ml after 20 hrs relative to control; assay type: functional
Streptococcus mutans [23] = experiment: Antibacterial activity against Streptococcus mutans ATCC 25175 assessed as effect on planktonic growth at 1.37 ug/ml after 20 hrs relative to control; assay type: functional
Streptococcus mutans [24] = experiment: Antibacterial activity against Streptococcus mutans ATCC 25175 assessed as effect on planktonic growth at 21.9 ug/ml after 20 hrs relative to control; assay type: functional
Pseudomonas aeruginosa [25] = experiment: Antibacterial activity against Pseudomonas aeruginosa ATCC 27853 assessed as inhibition of biofilm formation after 20 hrs by crystal-violet staining method; assay type: functional, organism-based
[26] = system: Staphylococcus epidermidis; experiment: Antibacterial activity against Staphylococcus epidermidis ATCC 35547 assessed as effect on planktonic growth at 5.5 ug/ml after 20 hrs relative to control; assay type: functional
[27] = system: Staphylococcus epidermidis; experiment: Antibacterial activity against Staphylococcus epidermidis ATCC 35547 assessed as effect on planktonic growth at 0.17 ug/ml after 20 hrs relative to control; assay type: functional
[28] = system: Staphylococcus epidermidis; experiment: Antibacterial activity against Staphylococcus epidermidis ATCC 35547 assessed as effect on planktonic growth at 10.9 ug/ml after 20 hrs relative to control; assay type: functional
[29] = system: Staphylococcus epidermidis; experiment: Antibacterial activity against Staphylococcus epidermidis ATCC 35547 assessed as effect on planktonic growth at 87.5 ug/ml after 20 hrs relative to control; assay type: functional
Staphylococcus aureus [30] = experiment: Antibacterial activity against Staphylococcus aureus ATCC 25923 assessed as effect on planktonic growth at 0.34 ug/ml after 20 hrs relative to control; assay type: functional
[31] = system: Staphylococcus epidermidis; experiment: Antibacterial activity against Staphylococcus epidermidis ATCC 35547 assessed as effect on planktonic growth at 21.9 ug/ml after 20 hrs relative to control; assay type: functional
Pseudomonas aeruginosa [32] = experiment: Antibacterial activity against Pseudomonas aeruginosa ATCC 27853 assessed as effect on planktonic growth at 0.68 ug/ml after 20 hrs relative to control; assay type: functional
Staphylococcus aureus [33] = experiment: Antibacterial activity against Staphylococcus aureus ATCC 25923 assessed as effect on planktonic growth at 43.8 ug/ml after 20 hrs relative to control; assay type: functional
Streptococcus mutans [34] = experiment: Antibacterial activity against Streptococcus mutans ATCC 25175 assessed as effect on planktonic growth at 5.5 ug/ml after 20 hrs relative to control; assay type: functional
Staphylococcus aureus [35] = experiment: Antibacterial activity against Staphylococcus aureus ATCC 25923 assessed as effect on planktonic growth at 1.37 ug/ml after 20 hrs relative to control; assay type: functional
Pseudomonas aeruginosa [36] = experiment: Antibacterial activity against Pseudomonas aeruginosa ATCC 27853 assessed as effect on planktonic growth at 21.9 ug/ml after 20 hrs relative to control; assay type: functional
Streptococcus mutans [37] = experiment: Antibacterial activity against Streptococcus mutans ATCC 25175 assessed as effect on planktonic growth at 0.68 ug/ml after 20 hrs relative to control; assay type: functional
Staphylococcus aureus [38] = experiment: Antibacterial activity against Staphylococcus aureus ATCC 25923 assessed as effect on planktonic growth at 2.73 ug/ml after 20 hrs relative to control; assay type: functional
[39] = system: Staphylococcus epidermidis; experiment: Antibacterial activity against Staphylococcus epidermidis ATCC 35547 assessed as effect on planktonic growth at 0.68 ug/ml after 20 hrs relative to control; assay type: functional
Staphylococcus aureus [40] = experiment: Antibacterial activity against Staphylococcus aureus ATCC 25923 assessed as effect on planktonic growth at 21.9 ug/ml after 20 hrs relative to control; assay type: functional
[41] = system: Staphylococcus epidermidis; experiment: Antibacterial activity against Staphylococcus epidermidis ATCC 35547 assessed as effect on planktonic growth at 1.37 ug/ml after 20 hrs relative to control; assay type: functional
[42] = system: Staphylococcus epidermidis; experiment: Antibacterial activity against Staphylococcus epidermidis ATCC 35547 assessed as effect on planktonic growth at 43.8 ug/ml after 20 hrs relative to control; assay type: functional

SMILES: COc1ccc(Cl)cc1C1=C(Br)C(=O)N(CC(C)C)/C1=C/c1ccccc1Br
- Activity (Staphylococcus aureus [1]): 3%
- Activity [2]: 5.5%
- Activity (Streptococcus mutans [3]): -4.3%
- Activity (Staphylococcus aureus [4]): 2.7%
- Activity (Streptococcus mutans [5]): -19.5%
- Activity (Pseudomonas aeruginosa [6]): -1.8%
- Activity (Staphylococcus aureus [7]): 3.6%
- Activity (Streptococcus mutans [8]): -3.3%
- Activity [9]: -3.7%
- Activity (Pseudomonas aeruginosa [10]): -14.6%
- Activity (Pseudomonas aeruginosa [11]): -5.1%
- inhibition [12]: Dose-dependent effect
- IC50 [12]: 33.2 µg/mL (≈ 63.2 µM)
- Activity (Pseudomonas aeruginosa [13]): -9.1%
- Activity (Pseudomonas aeruginosa [14]): -5.8%
- Activity (Staphylococcus aureus [15]): -4.6%
- Activity (Streptococcus mutans [16]): 6.4%
- Activity (Streptococcus mutans [17]): 1.5%
- Activity (Pseudomonas aeruginosa [18]): -3.9%
- Activity (Staphylococcus aureus [19]): 0.2%
- Activity (Pseudomonas aeruginosa [20]): -18.1%
- Activity (Streptococcus mutans [21]): -18.8%
- Activity (Pseudomonas aeruginosa [22]): -5.8%
- Activity (Streptococcus mutans [23]): -8.2%
- Activity (Streptococcus mutans [24]): 7%
- inhibition (Pseudomonas aeruginosa [25]): Dose-dependent effect
- IC50 (Pseudomonas aeruginosa [25]; ATCC 27853, 20 h): > 87.5 µg/mL
- Activity [26]: 2.7%
- Activity [27]: 1.9%
- Activity [28]: -0.4%
- Activity [29]: 31.5%
- Activity (Staphylococcus aureus [30]): -0.7%
- Activity [31]: 10.6%
- Activity (Pseudomonas aeruginosa [32]): -7.5%
- Activity (Staphylococcus aureus [33]): -4.3%
- Activity (Streptococcus mutans [34]): 1.8%
- Activity (Staphylococcus aureus [35]): -2.5%
- Activity (Pseudomonas aeruginosa [36]): -14.6%
- Activity (Streptococcus mutans [37]): -13.4%
- Activity (Staphylococcus aureus [38]): 7.5%
- Activity [39]: -2.2%
- Activity (Staphylococcus aureus [40]): -6.2%
- Activity [41]: -0.4%
- Activity [42]: 21.8%

SMILES: COc1ccc(Br)cc1C1=C(Br)C(=O)N(CC(C)C)C1(O)Cc1cccc(Cl)c1 (configuration not stated)
- Activity (Staphylococcus aureus [1]): 3.1%
- Activity [2]: 34.1%
- Activity (Streptococcus mutans [3]): 6.6%
- Activity (Staphylococcus aureus [4]): -4.6%
- Activity (Streptococcus mutans [5]): 1.1%
- Activity (Pseudomonas aeruginosa [6]): -7.3%
- Activity (Staphylococcus aureus [7]): 35.1%
- Activity (Streptococcus mutans [8]): 7%
- Activity [9]: 20.9%
- Activity (Pseudomonas aeruginosa [10]): 4.3%
- Activity (Pseudomonas aeruginosa [11]): -3.1%
- inhibition [12]: Dose-dependent effect
- IC50 [12]: > 87.5 µg/mL
- Activity (Pseudomonas aeruginosa [13]): 3.3%
- Activity (Pseudomonas aeruginosa [14]): -6.6%
- Activity (Staphylococcus aureus [15]): 4.2%
- Activity (Streptococcus mutans [16]): 26.1%
- Activity (Streptococcus mutans [17]): 16.9%
- Activity (Pseudomonas aeruginosa [18]): -5.4%
- Activity (Staphylococcus aureus [19]): 16.6%
- Activity (Pseudomonas aeruginosa [20]): 3.2%
- Activity (Streptococcus mutans [21]): 5.5%
- Activity (Pseudomonas aeruginosa [22]): 0.1%
- Activity (Streptococcus mutans [23]): 12.1%
- Activity (Streptococcus mutans [24]): 15.4%
- inhibition (Pseudomonas aeruginosa [25]): Dose-dependent effect
- Activity [26]: 24.3%
- Activity [27]: 17.5%
- Activity [28]: 25.8%
- Activity [29]: 38.2%
- Activity (Staphylococcus aureus [30]): 6.1%
- Activity [31]: 30.2%
- Activity (Pseudomonas aeruginosa [32]): -9%
- Activity (Staphylococcus aureus [33]): 30.3%
- Activity (Streptococcus mutans [34]): 9.6%
- Activity (Staphylococcus aureus [35]): -2%
- Activity (Pseudomonas aeruginosa [36]): 1.4%
- Activity (Streptococcus mutans [37]): 10.3%
- Activity (Staphylococcus aureus [38]): 0.6%
- Activity [39]: 23.2%
- Activity (Staphylococcus aureus [40]): 23.8%
- Activity [41]: 22.8%
- Activity [42]: 35.9%
